Experimental data from patent US9351956B1, “Pharmaceutical composition comprising an enantiomer of lipoamide and derivatives thereof and method of use” (GeroNova Research Inc., priority 2012, dated 2016).

Experiments:
Assay type in all cases: cell-based
Settings in all cases: HepG2 cells, 0.2 mM, 8 hours, 5.5 mM glucose
[1] = system: xenobiotic response element (XRE); test: dual-luciferase reporter array, XRE
Procedure: (§1) Nine test compounds were synthesized and characterized. The effects of R, S and RS forms of LA, LAM and LAP on multiple signaling pathways were studied in HepG2 cells at 0.2 mM for 8 hours (5.5 mM glucose) using a dual-luciferase reporter array. The reporter is a mixture of Firefly Luciferase gene construct under control of an inducible transcription factor-responsive promoter and an internal control plasmid constitutively expressing Renilla luciferase gene. Each inducible construct monitors changes in the activity of a select transcription factor serving as a marker for activation or suppression of a specific signaling pathway.

[2] = system: heat shock factor (HSF); test: dual-luciferase reporter array, HSF
Procedure: as §1

[3] = system: Antioxidant Response Element (ARE); test: dual-luciferase reporter array, ARE
Procedure: as §1

[4] = system: progesterone receptor (PR); test: dual-luciferase reporter array, PR
Procedure: as §1

[5] = system: peroxisome proliferator-activated receptor (PPAR); test: dual-luciferase reporter array, PPAR
Procedure: as §1

[6] = system: PI3K/AKT; test: dual-luciferase reporter array, FOXO reporter as inverse marker for PI3K/AKT
Procedure: as §1
This above studies identified previously unknown enantioselective and non-enantioselective pathways differentially affected by LA and amide derivatives. In some cases the racemic compounds activate pathways not activated by either enantiomer. […] The heavy metal response pathway was similarly affected by all nine compounds, which lowered values below control levels. […] The greatest increase in activity of a pathway by all compounds was activation of the Antioxidant Response Element (ARE) but the magnitude varied widely by compound. […] Activation of FOXO transcription factors is repressed by AKT phosphorylation and thus functions as an inverse marker for PI3K/AKT activity, such that low pathway activity increases the magnitude of the FOXO reporter.

[7] = system: C/EBP; test: dual-luciferase reporter array, C/EBP
Procedure: as §1

[8] = system: retinoic acid response element (RAR); test: dual-luciferase reporter array, RAR
Procedure: as §1

SMILES	XRE induction [1]	ARE response (activation) [3]	PI3K/AKT activation (inverse of FOXO reporter response) [6]	other results
NC(=O)CCCC[C@H]1CCSS1 [SLAM, S-(−)-lipoamide]	induced	activated	–	HSF activation [2]: activated
CN(C)CCNC(=O)CCCC[C@H]1CCSS1 [SLAP]	induced	–	–	–
NC(=O)CCCC[C@@H]1CCSS1 [RLAM, R-(+)-lipoamide]	–	strongest ARE response	–	PR activation [4]: selectively activates
O=C(O)CCCC[C@H]1CCSS1 [SLA, S-(−)-lipoic acid]	–	–	minimal	PPAR activity [5]: lowered
O=C(O)CCCC[C@@H]1CCSS1 [RLA, R-(+)-lipoic acid]	–	–	strongly activates	C/EBP activation [7]: selectively activates; RAR activation [8]: selectively activates
